Data from US20260184750A1, “CONJUGATE COMPRISING PEPTIDE OF NOVEL SEQUENCE AND GLYCYRRHIZIN, AND PHARMACEUTICAL COMPOSITION FOR PREVENTING OR TREATING OBESITY COMPRISING SAME” (IUCF-HYU (INDUSTRY-UNIVERSITY COOPERATION FOUNDATION …, priority 2022, published 2026).
Where two headings read alike, the source gives them in different places. No end group written: not given here.

Tests used:
[1] = test system: obese adipocytes (FFA-treated mature 3T3-L1 cells); experiment: Anti-hypertrophic effect in obese adipocytes (Oil Red O); assay type: cell-based
Protocol: To induce obesity in adipocytes at the cell experiment level, cells were treated with saturated fatty acids, and the process of inducing obese adipocytes and performing the experiment at the cell experiment level are shown in FIG. 16. Specifically, a saturated fatty acid (free fatty-acid) (FFA, palmitic acid) was dissolved in a 2% w/v bovine serum albumin (BSA) and 0.5% ethanol DMEM solution to a concentration of 500 μM. After treating with FFA for three days, the cells were washed, subjected to an Oil Red O staining solution process, and then the amount of accumulated fatty acids was measured through the absorbance at 510 nm. The results are shown in FIG. 17, and it was confirmed even through qualitative observation that the size of single fat droplets was very different. […]
The anti-hypertrophy effect of GL derivatives in obesity-induced adipocytes according to the concentration was confirmed at the cell experiment level. […] The amount of fatty acids accumulated inside the cells was measured through the Oil Red O staining process on day 18 of differentiation. […]
It was confirmed whether the anti-hypertrophic effect according to the expected mechanism of GL derivatives differed depending on the fatty acid treatment method. […] On day 18 of differentiation, the amount of fatty acids accumulated inside the cells was measured through the Oil Red O staining process.

[2] = Pharmacokinetics: blood residual concentration after intraperitoneal injection; assay type: in vivo, C57BL/6J; details: 13.5 mg/kg intraperitoneal
Protocol: The pharmacokinetic indices were calculated by measuring the blood residual concentrations of GL derivatives. Specifically, GL and GL-PEG-AHP were injected intraperitoneally in an amount of 13.5 mg/kg into animals (C57BL/6J, 6 weeks old, 5 per cage). At each time point (0, 20, 30, 120, 240, and 480 minutes) following the intraperitoneal injection, the animals were sacrificed, and 300 μl of blood samples were obtained through the abdominal vein. The obtained blood samples were placed in EDTA tubes and centrifuged at 824×g for 30 minutes at 4° C. 50 μl of the supernatant was mixed with 100 μl of methanol, and the resulting mixture was vortexed for 10 minutes. Thereafter, centrifugation was performed again at 10,000×g for 10 minutes. 100 μl of the supernatant was mixed with 900 μl of the mobile phase, and the resulting mixture was filtered through a 0.45 μm syringe filter, and HPLC was performed (HPLC column: C8 column; mobile phase=methanol:acetonitrile:water:acetic acid=55:23.7:19.2:0.68; flow rate: 1 ml/min; injection volume: 20 μl) to measure the blood residual concentration of the drug over time. Detection was performed through UV at 245 nm.

ABCA1 = ABCA1 cell membrane expression in adipocytes treated with LXR inhibitor GSK2033; assay type: cell-based; details: adipocytes treated with GL derivatives
Protocol: It was confirmed through fluorescence images whether the cell membrane expression level of ABCA1 by GL derivatives is reduced in adipocytes by GSK2033, an LXR inhibitor. […] Specifically, 4×10^4 adipocytes were seeded in a 24-well plate and treated with each group (control, GL, PEG, AHP, GL-PEG, and GL-PEG-AHP) for 24 hours on day 14 of adipocyte differentiation. The cells were fixed using 4% PFA. After washing with PBS, the cells were incubated with 10% goat serum and 0.02% Tween-20 for 30 minutes at room temperature. The cells were treated with the ABCA1 antibody (Host: rabbit, 1:300) in PBST at room temperature for two hours. After washing with PBST, the cells were treated with an FITC-labeled secondary antibody (goat-anti-rabbit, 1:500) at room temperature for one hour. After washing with PBS, the cells were treated with DAPI for one minute at room temperature, and then fluorescence images were obtained.

[3] = test system: adipocytes (mature 3T3-L1); experiment: FACS targeting ability of FITC-labeled peptides in adipocytes; assay type: cell-based; details: 37° C.; for targeting ability (FACS): adipocytes (mature 3T3-L1), 1 μM FITC-labeled peptide, 30 minutes
Protocol: To conduct cell experiments in adipocytes, preadipocytes were differentiated into adipocytes. Specifically, 3T3-L1 preadipocytes were first seeded in a well plate of a size suitable for the experimental purpose, and then cultured to 80% to 90% confluence. Thereafter, the cells were treated with an adipocyte differentiation induction reagent (insulin 10 μg/ml, dexamethasone 0.4 μg/ml, 3-isobutyl-1-methylxanthine 111 μg/ml) for three days. After washing the adipocyte differentiation induction reagent with phosphate-buffered saline (PBS), the cells were treated with Dulbecco's modified eagle medium (DMEM) containing insulin (10 μg/ml) every two days, and differentiation was induced for up to 14 days to generate adipocytes. Thereafter, on day 14 of the adipocyte differentiation induction, the cells were fixed with 4% paraformaldehyde and then treated with the Oil red O staining solution for two hours. In addition, the staining solution accumulated inside the cells was eluted with isopropanol, and a microplate reader was used to verify whether fatty acids were accumulated inside the adipocytes at a wavelength of 510 nm to finally confirm the differentiation.
The targeting effect of the above-described candidate peptides was quantitatively verified in actual adipocytes and preadipocytes. Specifically, differentiated 3T3-L1 preadipocytes were treated at 37° C. for 30 minutes with 1 μM of the final FITC-labeled candidate peptides dissolved in DMEM.
After washing with PBS, cells were detached from the well plate using a trypsin-ethlyenediaminetetraacetic acid (EDTA) (0.5%) solution and centrifuged at 1100 rpm for three minutes to obtain sedimented cells. […]
The finally selected candidate peptide (adipose tissue homing peptide: AHP) (SEQ ID NO: 14: KGRRAKD) was quantitatively compared with another adipose tissue targeting sequence (adipose targeting sequence: ATS) (SEQ ID NO: 22: KGGRAKD) in adipocytes. […]

[4] = test system: adipocytes (mature 3T3-L1); experiment: Confocal fluorescence imaging of peptide binding to adipocyte outer membrane; assay type: cell-based; details: 1 μM FITC-labeled peptide, 30 minutes, 37° C.
Protocol: The binding of the candidate peptides to the adipocyte outer membrane was confirmed through fluorescence imaging. Specifically, differentiated 3T3-L1 preadipocytes were treated with 1 μM of the finally selected FITC-labeled candidate peptides in Table 2 dissolved in DMEM for 30 minutes at 37° C. After washing with PBS, cell nuclei were stained using 4′6,-diamidino-2-phenylindole (DAPI). Fluorescence images were taken using a confocal microscope (green fluorescence (FITC)=488 nm, blue fluorescence (DAPI)=405 nm).

[5] = target: T1, prohibitin (PHB) on the surface of adipocytes (mature 3T3-L1) (UniProt P67778 2-272, limits assumed); experiment: FACS of FITC-labeled peptide on mature 3T3-L1 adipocytes, 30 min at 37 °C
T1 construct: whole, on cells
T1 sequence (looked up): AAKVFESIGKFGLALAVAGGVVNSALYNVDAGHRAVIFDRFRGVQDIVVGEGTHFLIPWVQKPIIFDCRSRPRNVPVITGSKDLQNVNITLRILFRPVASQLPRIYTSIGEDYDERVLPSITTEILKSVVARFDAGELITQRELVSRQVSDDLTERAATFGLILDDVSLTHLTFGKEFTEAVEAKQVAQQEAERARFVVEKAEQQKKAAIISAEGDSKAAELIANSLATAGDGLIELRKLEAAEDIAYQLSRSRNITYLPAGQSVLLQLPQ

Which “difference in drug efficacy between pretreatment and co-treatment” value ([1]; anti-hypertrophic effect, Oil Red O, day 18 of differentiation) does the source give for “GL-PEG-AHP: adipose tissue-targeting glycyrrhizin conjugate: GL amide-bonded to thiol-PEG-amine, disulfide-bonded to AHP (SEQ ID NO: 1: GKGRRAKDC) (also: glycyrrhizin-PEG conjugate, Cys9 disulfide-linked to thiol-PEG-GL)” here?
The value was “greatest efficacy difference”.

And the anti-hypertrophic effect ([1]; drug pretreatment, 25, 50, 100, 200, 400 μM, ranking between groups)?
Its anti-hypertrophic effect is “most effective anti-hypertrophic effect”.

And the Cmax [2]?
The Cmax was 75200 ng/mL.

And the T1/2 [2]?
The T1/2 was 3.45 h.

And the Tmax [2]?
Its Tmax is 0.333 h.

For Cc1cc(C)c(S(=O)(=O)N(Cc2ccc(-c3cccc(S(C)(=O)=O)c3)cc2)Cc2ccc(C(F)(F)F)o2)c(C)c1 [GSK2033], which “expression of ABCA1 in GL derivative groups by GSK2033 treatment” value (ABCA1) is on record?
Its value is “suppressed”.

With “7mer 001: adipose tissue homing peptide, SEQ ID NO: 14: KGRRAKD; conjugated form SEQ ID NO: 1: GKGRRAKDC” as the molecule, how does the “adipocyte targeting effect compared with ATS (FACS)” value ([3]; 1 μM FITC-labeled AHP and ATS, 30 min) read?
The value was “not inferior in efficacy to ATS”.

And the “targeting ability (FACS)” value [3]?
The value was “most effective targeting ability”.

What about the “adipocyte targeting ability (confocal fluorescence images)” value [4] of the same molecule?
The value was “best adipocyte targeting ability”.

Which results are given for CC1(C)[C@@H](O[C@H]2O[C@H](C(=O)O)[C@@H](O)[C@H](O)[C@H]2O[C@@H]2O[C@H](C(=O)O)[C@@H](O)[C@H](O)[C@H]2O)CC[C@]2(C)[C@H]3C(=O)C=C4[C@@H]5C[C@@](C)(C(=O)O)CC[C@]5(C)CC[C@@]4(C)[C@]3(C)CC[C@@H]12 [GL, glycyrrhizin]?
AUC(0-t) ([2]; C57BL/6J, mouse, plasma, ip): 114 µg·h/mL; half-life ([2]; C57BL/6J, mouse, plasma, ip): 3.3 h; Cmax ([2]; C57BL/6J, mouse, plasma, ip, read-out: Cmax): 43800 ng/mL; Tmax ([2]; C57BL/6J, mouse, plasma, ip, read-out: Tmax (converted)): 0.333 h

With “GRRAK: 5mer candidate peptide, SEQ ID NO: 6” as the molecule, how does the “targeting ability (FACS)” value [3] read?
The value was “did not have a significant targeting ability”.

B1: 5mer candidate peptide GRRAK, FITC-labeled (peptide)
peptide: GRRAK
modifications: also: FITC-labeled, position not given here
notes: Described as a 'working region'; also called working region GRRAK
Does B1 bind [5]?
Result: no binding (tested: 1 µM)
